System: normal cells (C8-D1A, HDF)
Assay: Proliferation index assay, normal cells
Details: 120 h; axitinib 5 µM, etoposide 1 µM

SMILES: CNC(=O)c1ccccc1Sc1ccc2c(/C=C/c3ccccn3)n[nH]c2c1 [Axitinib, axitinib]
- proliferation of normal cells: impaired in these conditions, although to a lower extent

Source: article PMC8750527 (Cancers, 2021)
